Among the data in patent US10280166B2, “2-(1H-indazol-3-yl)-3H-imidazo[4,5-B]pyridine and therapeutic uses thereof” (Samumed, LLC, priority 2014, dated 2019) are IC50 and EC50 values, retold here.

The term IC50 denotes the concentration at which inhibition is half-maximal. A higher IC50 goes with a need for much substance. As usually defined, the EC50 is the midpoint of the concentration-response curve. Higher therefore signals lower potency in that assay.

The subject of experiment [1] is Wnt activity (SW480 colon carcinoma cells stably expressing the Sp5-Luc reporter gene). Kind of experiment: Sp5-Luc reporter gene screening assay for Wnt activity in SW480 cells. The format is cell-based. The settings on record: Homo sapiens, 42 h incubation, luminescence. From the text: The screening assay for Wnt activity is described as follows. Reporter cell lines can be generated by stably transducing cancer cell lines (e.g., colon cancer) or primary cells (e.g., IEC-6 intestinal cells) with a lentiviral construct that includes a Wnt-responsive promoter driving expression of the firefly luciferase gene.
SW480 colon carcinoma cells were transduced with a lentiviral vector expressing luciferase with a human Sp5 promoter consisting of a sequence of eight TCF/LEF binding sites. SW480 cells stably expressing the Sp5-Luc reporter gene and a hygromycin resistance gene were selected by treatment with 150 μg/ml of hygromycin for 7 days. These stably transduced SW480 cells were expanded in cell culture and used for all further screening activities. For Sp5-Luc reporter gene assays, the cells were plated at 10,000 cells/well in 96-well plates with growth medium containing 10% fetal calf serum and incubated overnight at 37° C. and 5% CO2. Each compound was dissolved in DMSO as a 10 mM stock in standard j-vials and used to prepare compound source plates in dose-response format with 3-fold serial dilutions and a 10 mM top concentration. Compound transfer from serially diluted source plates to assay plates containing the cells was accomplished using a pintool (Multimek 96, Beckman equipped with V&P Scientific FP1S50H pins) based liquid handling protocol. This protocol used a slotted pin to transfer 50 nl of compound from a source plate well to an assay plate well containing 50 μl of cells in growth medium. […] Control wells received 50 nl of DMSO treatment for normalization and calculating IC50 values. The treated cells were incubated at 37° C. and 5% CO2 for an additional forty-two hours. Following incubation, the growth medium was removed and 50 μl of BrightGlo luminescence reagent (Promega) was added to each well of the 96-well assay plates. The plates were placed on an orbital shaker for 5 min and then luminescence was quantified on the Victor3 (Perkin Elmer) plate reader. Readings were normalized to DMSO only treated cells, and normalized activities were utilized for IC50 calculations using the dose-response log (inhibitor) vs. response—variable slope (four parameters) nonlinear regression feature available in GraphPad Prism 5.0 or 6.0.
On the technique in general: Reporter assays use an easily measured gene product as a stand-in for the process of interest.

The test system of experiment [2] is primary human fibroblasts derived from IPF patients (LL29 cells). Kind of experiment: Inhibition of fibrosis (αSMA) in TGF-β1 treated primary human fibroblasts from IPF patients. The format is cell-based. The settings on record: Fibroblast, 96 h, TGF-β1 20 ng/mL, 4 days, % αSMA positive cells. From the text: The above synthesized compounds were screened using primary human fibroblasts (derived from IPF patients) treated with TGF-β1 to determine their ability to inhibit the fibrotic process.
Primary human fibroblasts derived from IPF patients (LL29 cells) [^1Xiaoqiu Liu, et.al., “Fibrotic Lung Fibroblasts Show Blunted Inhibition by cAMP Due to Deficient cAMP Response Element-Binding Protein Phosphorylation”, Journal of Pharmacology and Experimental Therapeutics (2005), 315(2), 678-687; ^2Watts, K. L., et.al., “RhoA signaling modulates cyclin D1 expression in human lung fibroblasts; implications for idiopathic pulmonary fibrosis”, Respiratory Research (2006), 7(1), 88] were obtained from American Type Culture Collection (ATCC) and expanded in F12 medium supplemented with 15% Fetal Bovine Serum and Penicillin/Streptomycin.
Each compound was dissolved in DMSO as a 10 mM stock and used to prepare compound source plates. Serial dilution (1:2, 11-point dose-response curves from 10 μM to 1.87 nM) and compound transfer was performed using the ECHO 550 (Labcyte, Sunnyvale, Calif.) into 384-well clear bottom assay plates (Greiner Bio-One) with appropriate DMSO backfill for a final DMSO concentration of 0.1%. LL29 cells were plated at 1,500 cells/well in 80 μl/well F12 medium supplemented with 1% Fetal Bovine Serum. One hour after addition of the cells, TGF-β1 (Peprotech; 20 ng/mL) was added to the plates to induce fibrosis (ref. 1 and 2 above). Wells treated with TGF-β1 and containing DMSO were used as controls. Cells were incubated at 37° C. and 5% CO2 for 4 days. Following incubation for 4 days, SYTOX green nucleic acid stain (Life Technologies [Thermo Fisher Scientific]) was added to the wells at a final concentration of 1 uM and incubated at room temperature for 30 min. Cells were then fixed using 4% formaldehyde (Electron Microscopy Sciences), washed 3 times with PBS followed by blocking and permeabilization using 3% Bovine Serum Albumin (BSA; Sigma) and 0.3% Triton X-100 (Sigma) in PBS. Cells were then stained with antibody specific to α-smooth muscle actin (αSMA; Abcam) (ref. 1 and 2 above) in 3% Bovine Serum Albumin (BSA; Sigma) and 0.3% Triton X-100 (Sigma) in PBS, and incubated overnight at 4° C. Cells were then washed 3 times with PBS, followed by incubation with Alexa Flor-647 conjugated secondary antibody (Life Technologies [Thermo Fisher Scientific]) and DAPI at room temperature for 1 hour. Cells were then washed 3 times with PBS and plates were sealed for imaging. αSMA staining was imaged by excitation at 630 nm and emission at 665 nm and quantified using the Compartmental Analysis program on the CellInsight CX5 (Thermo Scientific). Dead or apoptotic cells were excluded from analysis based on positive SYTOX green staining. % of total cells positive for αSMA were counted in each well and normalized to the average of 11 wells treated with TGF-β1 on the same plate using Dotmatics' Studies Software. The normalized averages (fold change over untreated) of 3 replicate wells for each compound concentration were used to create dose-responses curves and EC50 values were calculated using non-linear regression curve fit in the Dotmatics' Studies Software. The EC50 values are reported.

On to `Cc1ccncc1-c1ccc2[nH]nc(-c3nc4cccnc4[nH]3)c2c1` [Compound 239, 2-(5-(4-Methylpyridin-3-yl)-1H-indazol-3-yl)-3H-imidazo[4,5-b]pyridine], for which half-maximal inhibition in experiment [1] (IC50) was put at 4100 nM. The EC50 in experiment [2] was found to be 0.171 nM. On to `CC(C)(C)C(=O)Nc1cncc(-c2ccc3[nH]nc(-c4nc5c(-c6cccs6)ccnc5[nH]4)c3c2)c1` [Compound 320, N-(5-(3-(7-(Thiophen-2-yl)-3H-imidazo[4,5-b]pyridin-2-yl)-1H-indazol-5-yl)pyridin-3-yl)pivalamide], for which half-maximal inhibition in experiment [1] (IC50) required 8.8 nM. The compound also had an EC50 in experiment [2] of 0.016 nM. Consider `Nc1cncc(-c2ccc3[nH]nc(-c4nc5c(-c6cccnc6)ccnc5[nH]4)c3c2)c1` [Compound 81, 5-(3-(7-(Pyridin-3-yl)-3H-imidazo[4,5-b]pyridin-2-yl)-1H-indazol-5-yl)pyridin-3-amine], for which, in experiment [1], the midpoint of inhibition, the IC50, lay at 5.8 nM. This compound also displayed an EC50 in experiment [2] of 0.009 nM. For `Fc1cccc(-c2ccnc3[nH]c(-c4n[nH]c5ccc(C6CCNCC6)cc45)nc23)c1` [Compound 1873, 7-(3-Fluorophenyl)-2-(5-(piperidin-4-yl)-1H-indazol-3-yl)-3H-imidazo[4,5-b]pyridine] the same measures were 3270 nM and 0.037 nM. As to `O=C(Nc1cncc(-c2ccc3[nH]nc(-c4nc5c(-c6ccoc6)ccnc5[nH]4)c3c2)c1)C1CCC1` [Compound 306, N-(5-(3-(7-(Furan-3-yl)-3H-imidazo[4,5-b]pyridin-2-yl)-1H-indazol-5-yl)pyridin-3-yl)cyclobutanecarboxamide], in experiment [1], half-maximal inhibition (IC50) required 6.7 nM. Besides, the EC50 in experiment [2] was 0.527 nM. For `Cc1ccc(-c2ccnc3[nH]c(-c4n[nH]c5ccc(-c6cncc(NC(=O)C(C)(C)C)c6)cc45)nc23)s1` [Compound 372, N-(5-(3-(7-(5-Methylthiophen-2-yl)-3H-imidazo[4,5-b]pyridin-2-yl)-1H-indazol-5-yl)pyridin-3-yl)pivalamide] the same measures were 0.6 nM and 0.009 nM.

Take `CCC(=O)Nc1cncc(-c2ccc3[nH]nc(-c4nc5c(N6CCCCC6)ccnc5[nH]4)c3c2)c1` [Compound 157, N-(5-(3-(7-(Piperidin-1-yl)-3H-imidazo[4,5-b]pyridin-2-yl)-1H-indazol-5-yl)pyridin-3-yl)propionamide]: the IC50 in experiment [1] was 15 nM. In experiment [2], the EC50 amounted to 0.605 nM. The matching figures for `CCNCc1cncc(-c2ccc3[nH]nc(-c4nc5c(-c6ccccn6)ccnc5[nH]4)c3c2)c1` [Compound 136, N-((5-(3-(7-(Pyridin-2-yl)-3H-imidazo[4,5-b]pyridin-2-yl)-1H-indazol-5-yl)pyridin-3-yl)methyl)ethanamine]: 1550 nM and 1.77 nM. The matching figures for `c1ccc(-c2ccnc3[nH]c(-c4n[nH]c5ccc(-c6cncc(CNCC7CCCC7)c6)cc45)nc23)nc1` [Compound 154, 1-Cyclopentyl-N-((5-(3-(7-(pyridin-2-yl)-3H-imidazo[4,5-b]pyridin-2-yl)-1H-indazol-5-yl)pyridin-3-yl)methyl)methanamine]: 1460 nM and 9.99 nM. In the case of `c1cc(-c2ccoc2)c2nc(-c3n[nH]c4ccc(-c5cncc(CNCC6CCCC6)c5)cc34)[nH]c2n1` [Compound 310, 1-Cyclopentyl-N-((5-(3-(7-(furan-3-yl)-3H-imidazo[4,5-b]pyridin-2-yl)-1H-indazol-5-yl)pyridin-3-yl)methyl)methanamine], in experiment [1], the IC50 stood at 1270 nM. The same compound displayed an EC50 in experiment [2] of 9.99 nM. The matching figures for `O=C(Nc1cncc(-c2ccc3[nH]nc(-c4nc5c(-c6cccs6)ccnc5[nH]4)c3c2)c1)C1CCCC1` [Compound 333, N-(5-(3-(7-(Thiophen-2-yl)-3H-imidazo[4,5-b]pyridin-2-yl)-1H-indazol-5-yl)pyridin-3-yl)cyclopentanecarboxamide]: 6.3 nM and 0.009 nM. The matching figures for `Cc1ccc(-c2ccnc3[nH]c(-c4n[nH]c5ccc(-c6cncc(CN7CCCCC7)c6)cc45)nc23)s1` [Compound 379, 7-(5-Methylthiophen-2-yl)-2-(5-(5-(piperidin-1-ylmethyl)pyridin-3-yl)-1H-indazol-3-yl)-3H-imidazo[4,5-b]pyridine]: 76 nM and 0.405 nM. The matching figures for `Fc1ccc(-c2ccnc3[nH]c(-c4n[nH]c5ccc(-c6cncc(CN7CCCC7)c6)cc45)nc23)s1` [Compound 352, 7-(5-Fluorothiophen-2-yl)-2-(5-(5-(pyrrolidin-1-ylmethyl)pyridin-3-yl)-1H-indazol-3-yl)-3H-imidazo[4,5-b]pyridine]: 13.2 nM and 0.125 nM. The compound `CC(C)C(=O)Nc1cncc(-c2ccc3[nH]nc(-c4nc5c(-c6ccccc6F)ccnc5[nH]4)c3c2)c1` [Compound 61, N-(5-(3-(7-(2-Fluorophenyl)-3H-imidazo[4,5-b]pyridin-2-yl)-1H-indazol-5-yl)pyridin-3-yl)isobutyramide] came in with an IC50 in experiment [1] of 6 nM. The compound further yielded an EC50 in experiment [2] of 0.009 nM. In the case of `CN(C)CCOc1cncc(-c2ccc3[nH]nc(-c4nc5c(-c6cccc(F)c6)ccnc5[nH]4)c3c2)c1` [Compound 1883, 2-((5-(3-(7-(3-Fluorophenyl)-3H-imidazo[4,5-b]pyridin-2-yl)-1H-indazol-5-yl)pyridin-3-yl)oxy)-N,N-dimethylethanamine], in experiment [2], the EC50 amounted to 0.095 nM.

As for `CN(C)Cc1cncc(-c2cc(F)c3[nH]nc(-c4nc5c(-c6ccsc6)ccnc5[nH]4)c3c2)c1` [Compound 741, 1-(5-(7-Fluoro-3-(7-(thiophen-3-yl)-3H-imidazo[4,5-b]pyridin-2-yl)-1H-indazol-5-yl)pyridin-3-yl)-N,N-dimethylmethanamine], the midpoint of inhibition in experiment [1], the IC50, lay at 936 nM. On the same count and under the same terms, to `CN(C)Cc1cncc(-c2ccc3[nH]nc(-c4nc5c(-c6cccc(F)c6)ccnc5[nH]4)c3c2F)c1` [Compound 1417, 1-(5-(4-Fluoro-3-(7-(3-fluorophenyl)-3H-imidazo[4,5-b]pyridin-2-yl)-1H-indazol-5-yl)pyridin-3-yl)-N,N-dimethylmethanamine] belongs 923 nM.

As for `O=C(Nc1cncc(-c2ccc3[nH]nc(-c4nc5c(-c6ccc(F)s6)ccnc5[nH]4)c3c2)c1)C1CCC1` [Compound 358, N-(5-(3-(7-(5-Fluorothiophen-2-yl)-3H-imidazo[4,5-b]pyridin-2-yl)-1H-indazol-5-yl)pyridin-3-yl)cyclobutanecarboxamide], the midpoint of inhibition in experiment [1], the IC50, lay at 6.9 nM.

`Fc1cccc(-c2ccnc3[nH]c(-c4n[nH]c5ccc(-c6cncc(OCCN7CCCC7)c6)cc45)nc23)c1` [Compound 1882, 7-(3-Fluorophenyl)-2-(5-(5-(2-(pyrrolidin-1-yl)ethoxy)pyridin-3-yl)-1H-indazol-3-yl)-3H-imidazo[4,5-b]pyridine] registered an IC50 in experiment [1] of 4140 nM.
